According to ChEMBL document CHEMBL3576839, “N-Aryl azacycles as novel sodium channel blockers” (Bioorg Med Chem Lett, 2015):
Converted amounts (≈) assume the structure as drawn. Values belong to the molecule of their own block, whether it stands above or below them.

Columns and labels:
[1] = Kinetic solubility of the compound at pH 1.2; assay type: physicochemical; settings: buffer, read-out: Kinetic_solubility
[2] = Kinetic solubility of the compound at pH 6.8; assay type: physicochemical; settings: buffer, read-out: Kinetic_solubility
[3] = biological target: T1, Sodium channel protein type 9 subunit alpha (Homo sapiens, UniProt Q15858); test: Inhibition of Nav1.7 (unknown origin) by electrophysiological assay
[4] = biological target: T1, Sodium channel protein type 9 subunit alpha; test: Inhibition of Nav1.7 (unknown origin) expressed in CHO cells after 45 mins by FLIPR assay; assay type: cell-based
[5] = biological target: hERG (KCNH2) (Homo sapiens, UniProt Q12809); test: Inhibition of human ERG at 1 uM
[6] = system: MDR1; test: Apparent permeability from apical to basolateral side in MDCK cells expressing MDR1; assay type: ADME, cell-based, Canis lupus familiaris; settings: dog
[7] = system: MDR1; test: Apparent permeability from basolateral to apical side in MDCK cells expressing MDR1; assay type: ADME, cell-based, Canis lupus familiaris; settings: dog
[8] = system: MDR1; test: Efflux ratio of permeability from basolateral to apical side over apical to basolateral side in MDCK cells expressing MDR1; assay type: ADME, cell-based, Canis lupus familiaris; settings: dog
[9] = Tmax in Sprague-Dawley rat at 3 mg/kg, po; assay type: ADME, organism-based; settings: in vivo
[10] = Cmax in Sprague-Dawley rat at 3 mg/kg, po; assay type: ADME, organism-based; parameters: dose 3 mg/kg, route oral; settings: in vivo
[11] = AUC in Sprague-Dawley rat at 3 mg/kg, po; assay type: ADME, organism-based; settings: in vivo

T1 sequence (Q15858 whole entry): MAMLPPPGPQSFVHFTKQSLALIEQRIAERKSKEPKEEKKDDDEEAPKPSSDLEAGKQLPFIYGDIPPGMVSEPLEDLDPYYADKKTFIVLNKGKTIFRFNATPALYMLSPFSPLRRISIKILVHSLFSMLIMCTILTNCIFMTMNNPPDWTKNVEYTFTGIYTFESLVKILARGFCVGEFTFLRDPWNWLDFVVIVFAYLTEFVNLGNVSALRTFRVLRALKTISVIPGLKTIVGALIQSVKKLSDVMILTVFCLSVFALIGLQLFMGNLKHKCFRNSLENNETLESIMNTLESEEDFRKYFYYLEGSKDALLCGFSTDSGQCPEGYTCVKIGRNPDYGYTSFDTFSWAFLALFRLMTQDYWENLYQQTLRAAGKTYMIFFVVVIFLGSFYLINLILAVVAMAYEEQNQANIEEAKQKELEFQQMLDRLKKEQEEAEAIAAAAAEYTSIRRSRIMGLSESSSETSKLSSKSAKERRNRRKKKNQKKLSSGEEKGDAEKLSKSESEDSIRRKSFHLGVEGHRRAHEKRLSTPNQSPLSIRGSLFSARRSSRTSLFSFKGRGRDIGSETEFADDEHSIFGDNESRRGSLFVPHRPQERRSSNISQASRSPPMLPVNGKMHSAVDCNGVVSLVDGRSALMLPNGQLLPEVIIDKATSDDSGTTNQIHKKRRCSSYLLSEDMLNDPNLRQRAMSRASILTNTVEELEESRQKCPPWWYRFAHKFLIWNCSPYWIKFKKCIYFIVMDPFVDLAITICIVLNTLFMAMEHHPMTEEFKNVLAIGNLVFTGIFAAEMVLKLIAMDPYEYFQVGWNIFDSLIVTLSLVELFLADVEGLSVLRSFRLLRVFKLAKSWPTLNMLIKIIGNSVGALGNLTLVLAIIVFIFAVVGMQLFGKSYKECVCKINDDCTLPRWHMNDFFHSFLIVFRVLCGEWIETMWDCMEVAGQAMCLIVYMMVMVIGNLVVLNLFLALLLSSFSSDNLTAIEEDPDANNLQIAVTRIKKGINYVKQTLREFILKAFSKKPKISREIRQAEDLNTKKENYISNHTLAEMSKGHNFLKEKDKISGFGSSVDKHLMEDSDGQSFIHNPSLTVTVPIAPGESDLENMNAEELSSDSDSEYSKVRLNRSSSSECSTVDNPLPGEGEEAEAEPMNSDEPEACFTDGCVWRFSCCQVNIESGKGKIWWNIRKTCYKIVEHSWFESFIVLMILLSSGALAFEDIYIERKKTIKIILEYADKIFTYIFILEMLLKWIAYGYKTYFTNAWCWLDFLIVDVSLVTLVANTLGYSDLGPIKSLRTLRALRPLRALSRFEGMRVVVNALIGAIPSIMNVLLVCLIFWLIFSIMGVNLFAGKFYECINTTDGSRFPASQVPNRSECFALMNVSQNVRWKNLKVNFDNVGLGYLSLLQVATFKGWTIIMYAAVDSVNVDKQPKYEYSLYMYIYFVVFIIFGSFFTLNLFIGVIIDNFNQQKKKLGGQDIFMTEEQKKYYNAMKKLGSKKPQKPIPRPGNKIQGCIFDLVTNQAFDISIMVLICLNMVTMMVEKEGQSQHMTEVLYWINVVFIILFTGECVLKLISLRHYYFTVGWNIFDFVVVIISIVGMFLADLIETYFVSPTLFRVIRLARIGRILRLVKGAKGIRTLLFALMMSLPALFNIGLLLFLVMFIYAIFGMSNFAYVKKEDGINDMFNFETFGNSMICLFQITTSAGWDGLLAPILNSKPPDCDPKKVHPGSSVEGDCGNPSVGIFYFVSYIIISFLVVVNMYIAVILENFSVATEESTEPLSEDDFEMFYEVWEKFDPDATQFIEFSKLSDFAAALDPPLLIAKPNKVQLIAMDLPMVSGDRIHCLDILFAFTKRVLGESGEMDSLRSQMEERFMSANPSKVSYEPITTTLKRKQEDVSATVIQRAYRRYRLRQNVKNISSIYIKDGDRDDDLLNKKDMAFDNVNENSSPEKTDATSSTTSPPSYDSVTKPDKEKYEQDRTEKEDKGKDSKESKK
hERG (KCNH2), sequence (Q12809 whole entry): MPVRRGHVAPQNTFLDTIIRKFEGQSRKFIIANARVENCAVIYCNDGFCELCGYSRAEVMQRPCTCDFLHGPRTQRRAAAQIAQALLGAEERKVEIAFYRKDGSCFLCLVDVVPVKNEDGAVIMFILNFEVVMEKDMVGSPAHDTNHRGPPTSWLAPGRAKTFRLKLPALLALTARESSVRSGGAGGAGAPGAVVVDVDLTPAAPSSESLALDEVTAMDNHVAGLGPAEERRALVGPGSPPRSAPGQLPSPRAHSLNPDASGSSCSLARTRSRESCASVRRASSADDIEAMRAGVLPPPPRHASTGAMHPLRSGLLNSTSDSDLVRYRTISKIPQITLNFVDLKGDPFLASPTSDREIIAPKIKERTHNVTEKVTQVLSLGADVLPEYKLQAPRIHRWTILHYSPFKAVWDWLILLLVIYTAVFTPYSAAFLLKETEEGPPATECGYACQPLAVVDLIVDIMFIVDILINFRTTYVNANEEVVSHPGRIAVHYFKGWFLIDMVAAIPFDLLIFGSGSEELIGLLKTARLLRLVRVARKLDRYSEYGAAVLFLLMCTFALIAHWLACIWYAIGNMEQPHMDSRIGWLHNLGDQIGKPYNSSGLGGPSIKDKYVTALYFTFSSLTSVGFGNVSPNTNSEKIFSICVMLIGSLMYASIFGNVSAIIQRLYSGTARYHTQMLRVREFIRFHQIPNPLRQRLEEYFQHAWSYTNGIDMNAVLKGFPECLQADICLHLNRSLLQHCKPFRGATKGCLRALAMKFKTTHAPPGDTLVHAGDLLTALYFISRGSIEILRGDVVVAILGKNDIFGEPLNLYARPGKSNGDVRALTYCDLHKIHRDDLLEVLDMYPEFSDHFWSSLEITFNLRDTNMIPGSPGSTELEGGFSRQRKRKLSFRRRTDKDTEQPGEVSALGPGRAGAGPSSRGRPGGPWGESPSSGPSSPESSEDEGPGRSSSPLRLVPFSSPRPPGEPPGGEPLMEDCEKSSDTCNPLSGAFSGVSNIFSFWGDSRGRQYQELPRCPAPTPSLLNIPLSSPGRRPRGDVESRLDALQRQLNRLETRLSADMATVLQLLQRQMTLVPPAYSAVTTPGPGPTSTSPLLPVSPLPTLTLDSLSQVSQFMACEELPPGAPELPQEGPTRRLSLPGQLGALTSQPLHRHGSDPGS

- solubility kinetic [1]: 0.03 µM (≈ 0.0123 µg/mL)
- solubility kinetic [2]: 0.02 µM (≈ 0.00823 µg/mL)
Compound: NC(=O)c1cccc(-c2ccc3c(c2)CCCCN3c2ccc(C(F)(F)F)cc2)n1

- solubility kinetic [1]: 0.08 µM (≈ 0.0331 µg/mL)
- solubility kinetic [2]: 0.08 µM (≈ 0.0331 µg/mL)
Compound: NC(=O)c1cccc(-c2ccc3c(c2)OCCCN3c2ccc(C(F)(F)F)cc2)n1

- IC50 [4]: 380 nM
Compound: CC(=O)N1CCN(c2ccc(C(F)(F)F)cc2)c2ccc(-c3cccc(C(N)=O)n3)cc2C1

- solubility kinetic [1]: 18 µM (≈ 7.42 µg/mL)
- solubility kinetic [2]: 0.59 µM (≈ 0.243 µg/mL)
Compound: NC(=O)c1cccc(-c2ccc3c(c2)CNCCN3c2ccc(C(F)(F)F)cc2)n1

More lines, now with the values behind:

Compound: CS(=O)(=O)N1CCN(c2ccc(C(F)(F)F)cc2)c2ccc(-c3cccc([C@H](O)CO)n3)cc2C1
- Ki [3]: 230 nM

Compound: CC(=O)N1CCN(c2ccc(C(F)(F)F)cc2)c2ccc(-c3cccc([C@H](O)CO)n3)cc2C1
- solubility kinetic [1]: 80 µM (≈ 37.7 µg/mL)
- solubility kinetic [2]: 39 µM (≈ 18.4 µg/mL)
- inhibition at 1 µM [5]: 13.9%
- Papp A→B [6]: 0.9 ×10⁻⁶ cm/s
- Papp B→A [7]: 28.3 ×10⁻⁶ cm/s
- efflux ratio [8]: 31
- Tmax [9]: 2.5 h
- Cmax [10]: 94 ng/mL
- AUC [11]: 562 ng·h/mL

Compound: CNC(=O)CN1CCN(c2ccc(C(F)(F)F)cc2)c2ccc(-c3cccc([C@H](O)CO)n3)cc2C1
- Ki [3]: 440 nM

Compound: NC(=O)N1CCN(c2ccc(C(F)(F)F)cc2)c2ccc(-c3cccc([C@H](O)CO)n3)cc2C1
- solubility kinetic [1]: 66 µM (≈ 31.2 µg/mL)
- solubility kinetic [2]: 1 µM (≈ 0.472 µg/mL)
- inhibition at 1 µM [5]: 22.6%
- Tmax [9]: 2.5 h
- Cmax [10]: 21 ng/mL
- AUC [11]: 133 ng·h/mL
